Entries after “also recorded” stand apart in the source; their conditions may differ.
Assays:
collagen mRNA = assay: mRNA expression for collagen following exposure to NO; type: cell-based
Text: Rather than applying exogenous collagenase for enzymatic debridement of necrotic tissue, exposing a wound with necrotic tissue to exogenous NO gas to upregulate endogenous collagenase may be more beneficial. When endogenous collagenase is released by the cell, it automatically releases TIMP's (tissue inhibitor of metalloproteinase). This ensures that the matrix degradation is coordinated and allows the establishment of sharp geographical boundaries of collagenolytic activity and the protection of areas of connective tissue from the activity of the enzyme. In contrast, use of exogenous collagenase material to debride a wound confers no protection to specific areas of the wound as it is active on every cell that comes in contact with it whether or not the effect is desired.
Preferably, after the exposure of the wound to high concentration of nitric oxide gas for a first treatment period (e.g., 5-8 hours per day), the necrotic tissue may be mechanically removed easily and the concentration of nitric oxide gas can be decreased for a second treatment period. The low concentration of nitric oxide gas (e.g., at 5-20 ppm) delivered for the second treatment period may upregulate the expression of collagen mRNA leading to synthesis of new collagen to aid in the closure of the wound. […] The second treatment period may be for a period 7-16 hours per day. […]

psoriatic lesions = assay: Psoriasis study, one volunteer, NO delivered to right foot in plastic boot; type: in vivo, human; conditions: 300 ppm
Method: Experiments were conducted using one volunteer who suffers from psoriasis. The subject had psoriasis on their arms, legs and feet, all of which is itchy and painful. At the time of the study, the volunteer was using a medicated cream called DOVOBET on the arms and legs. The subject stopped using the medicated cream on the legs and feet prior to the NO treatments described herein.
Treatments were administered to the subject's right foot, as it appeared to have been affected the most by psoriasis. […] Around the ankle were small red blotches that spread all of the way up the leg. The small blotches were slightly raised and appeared to be inflamed.
The subject's foot was placed into a large plastic boot, which was lightly secured with VELCRO straps halfway up the calf. A tube coming out of the top of the plastic boot was unaltered, and the second tube was sealed off using a plastic clamp. A NO line capable of delivering NO at 300 ppm, 250 cc per minute, was screwed into the bottom tubing closest to the ankle using a plastic screw. A pin was used to pick several holes in the bottom of the plastic boot to allow the NO to flow through the boot. NO was then administered to the boot, and therefore, the psoriatic lesions, at 300 ppm for 180 minutes per day over six consecutive days.

collagenase mRNA = assay: mRNA expression for collagenase following exposure to gNO; type: cell-based; conditions: 200 ppm gNO, 24 and 48 hours, with increasing exposure time
Text: Witte M B, et al, (2002) Nitric oxide enhances […] wound healing in diabetes, Br J Surg., 89:1594-601. Thus, Applicants believe that NO may upregulate expression of both collagenase (MMP-1) and gelatinase (MMP-2), which may be important in keeping the wound clean from necrotic tissue while not prolonging the inflammatory phase.

human fibroblast cells = assay: Fibroblast viability study in gNO incubation chamber (morphology, cell count, proliferation); type: cell-based
Method: Fibroblast cells obtained from adult patients undergoing elective reconstructive surgery were cultured in Dulbeco's Modified Eagle's Medium (DMEM), supplemented with 10% fetal bovine serum (FBS) and antibiotic-antimycotic preparation and divided into ten 25 cm^2 vented culture flasks (COSTAR). Four of these flasks (treated group) were exposed to 20 or 200 ppm humidified gNO inside a specialized NO incubation chamber at 37° C. for 24 and 48 hours. The NO exposure chamber was validated prior to the study to eliminate extraneous variables and ensure optimal conditions for fibroblast cell growth. Another four flasks (control group) were placed inside conventional culture incubator and exposed only to ambient humidified air at 37° C. Two flasks were separately harvested and counted as the number of cells at zero time. Following the treatment, fibroblast cells were harvested and evaluated for morphology, cell count, capacity to proliferate and medium pH.
Cells under gNO appeared healthy and attached to the culture plates.

[1] = system: full thickness infected wound; assay: Histology of full thickness infected wound punch biopsies, gNO-treated vs control animals; type: in vivo; conditions: for toxic effects (cellular debris) in wound tissue: in vivo exposure, 200 ppm gNO, open wound animal model
Method: FIG. 5 illustrates histology analysis of full thickness infected wound exposed to 200 ppm gNO for 24 hours.
FIG. 5 presents histological analysis of tissue blocks prepared on wound punch biopsies from animals in NO-treated and control groups. Samples from the control group show more advanced neutrophil infiltration and so a higher degree of inflammatory reaction. […] Overall, a healthier healing process is observed in the wounds treated with gNO.

[2] = system: fibroblasts grown in a 3D matrix; assay: Migration and proliferation of fibroblasts grown in a 3D matrix; type: cell-based; conditions: 200 ppm NO, 8 hours per day for 3 days, vs air or conventional incubator
[3] = system: leg ulcer induced by an autoimmune disorder; assay: Autoimmune wound patient: leg ulcer in antiphospholipid antibody syndrome, topical nitric oxide gas; type: in vivo, human
Text: A patient was diagnosed with antiphospholipid antibody syndrome. Antiphospholipid antibody syndrome is an autoimmune disorder that mainly affects people under the age of 40. The disease causes the blood in the body to clot and is associated with a type of antibody that attacks blood platelets. Strokes, deep vein thrombosis (DVT), heart attacks, and pulmonary emboli are some of the manifestations of the disease. As a result of this syndrome, the patient had two DVT's and one pulmonary embolism.
Following repetitive injury to the deep venous system, the patient developed three areas of ulceration and secondary skin breakdown on the left shin area of the leg. The wound was colonized with a variety of organisms and at times had been clinically infected. The patient had been treated with numerous types of oral and IV antibiotics over several years. Many different types of dressings had been used to control the bacteria, including silver dressings, all without success.
The three small ulcers continued to grow in size and then joined together to create one large ulcer (FIG. 15A). Skin grafts on two occasions deteriorated and sloughed due to repetitive infections and high bacterial burden, even with the use of hyperbaric oxygen treatment.
With the inability to control the bacterial burden, amputation was planned. As a rescue trial, topical nitric oxide gas was applied for eight hours per night.
The nitric oxide therapy was then changed to be used for 12 hours per night, using 200 ppm gNO.

human endothelial cells = assay: Tube formation in human endothelial cells grown in matrigel; type: cell-based; conditions: 200 ppm NO, 8 hours or 24 hours
Method: Left panels at 8 hours of exposure. Right panels at 24 hours of exposure.

human fibroblasts = assay: Cell attachment capacity of human fibroblasts; type: cell-based; conditions: 160 ppm gNO, within 1 hour of culturing; control group the same
Method: FIG. 9 illustrates cell attachment capacity of human fibroblasts following exposure to 160 ppm of gNO.
Capability of cells to reattach to the culture plates within a specified time limit is commonly used as an indication of viability of cells in culture. Both the control and treated groups show a 70% attachment capacity within 1 hour of culturing.

[4] = after second treatment (day two)
[5] = after third treatment (day three)
[6] = gNO less than 200 ppm continuously for 48 hours
[7] = 200 ppm gNO, 12 hours per night, another eight weeks

## [N]=O [NO, nitric oxide]
Collagen mRNA; fibroblasts exposed to 5 ppm of NO
  collagen mRNA expression: increased collagen mRNA expression
Collagen mRNA; high concentration (200 ppm) of exogenous nitric oxide, FIG. 6 left panel
  collagen expression: possible inhibition of collagen expression
Psoriatic lesions; 180 min, after first treatment (day one)
  appearance of the psoriasis: no change
Psoriatic lesions; 180 min, after the first day
  white scales on the ankle: disappeared
Psoriatic lesions; 180 min per day, after day two
  discolored (dark) patch of skin on inner calf: almost gone
Psoriatic lesions; after fourth, fifth and sixth treatments (days 4, 5 and 6)
  physical results (psoriatic condition): remain the same
Psoriatic lesions; [4]
  inflammation around the ankle: diminished slightly
  small red blotches around the ankle and up the leg: the same as prior to the treatment
Psoriatic lesions; [5]
  inflammation around the ankle: decreased considerably
  psoriatic lesion around the ankle (area): smaller in area
  small red blotches around the ankle and up the leg: appeared the same
Collagenase mRNA
  expression of collagenase mRNA: increased
Human fibroblast cells; 200 ppm NO, vs control
  fibroblast cell proliferation: increasing proliferation; also recorded: increase in fibroblast cell proliferation
Human fibroblast cells; around 200 ppm gNO, 24 and 48 hours, 37° C.
  harmful effects on the fibroblast (morphology, cell count, capacity to proliferate, medium pH): did not have harmful effects
Human fibroblast cells; [6]
  morphological appearance and attachment capacity of treated vs control dermal fibroblasts: quite comparable
  toxic effect due to exposure: No toxic effect
[1]; 200 ppm gNO for 24 hours, vs control group
  neutrophil concentration (inflammatory reaction) in wounds: lower level of neutrophil concentration
[1]; 200 ppm gNO for 24 hours, vs control wounds
  wound closure / healing process (histology): layer of granular tissue closing on the wound
[1]; listed as gNO
  toxic effects (cellular debris) in wound tissue: No toxic effects
[1]; listed as nitric oxide gas
  toxic effects (cellular debris) in wound tissue: no toxicity
[2]
  migration of fibroblasts: does not appear to affect
  proliferation of fibroblasts in 3D matrix: does not appear to interfere with the proliferation
[3]; [7]
  clinical outcome (planned amputation): amputation was avoided
  wound covered by beefy red granulation tissue: ~75%
[3]; topical, eight hours per night, within six weeks
  wound appearance: less yellow slough in the wound bed, the wound edges appeared less raised, and more granulation buds were present
Human endothelial cells
  tube formation vs air: no significant difference
Human fibroblasts
  attachment capacity: 70%
